Literature values, collected in patent publication US20250234859A1, “AQUEOUS SUSPENSION AGROCHEMICAL COMPOSITION, DISEASE CONTROL METHOD, AND USEFUL PLANT SEEDS” (KUMIAI CHEMICAL INDUSTRY CO., LTD., priority 2021, published 2025).

Test system: rice blast, glume blotch, cucumber downy mildew, and cucumber anthracnose
Conditions: diseases such as rice blast, Patent Document 3

In the case of `O=S1(=O)N=C(OCc2snc(Cl)c2Cl)c2ccccc21` [dichlobentiazox, 3-(3,4-dichloroisothiazol-5-ylmethoxy)-1,2-benzothiazole-1,1-dioxide], the “effect on plant diseases” value is given as “remarkable effect”.
